Target: T1, CDK2/Cyclin E (Homo sapiens, UniProt P24941)
T1 construct: The open reading frames of CDK2 and Cyclin E were isolated; made in house; host or cells: Spodoptera frugiperda SF21 insect cells with baculovirus co-infection (CDK2 and cyclin E); E. coli BL21 (DE3) pLysS (GST-Rb substrate)
Assay: in vitro kinase assay, Scintillation Proximity Assay, incorporation of [γ-33-P]-ATP into GST-Rb
Type: biochemical
Details: CDK2/Cyclin E partially-purified enzyme, GST-Rb substrate, 0.2 μM ATP, 60 minutes at room temperature
Experimental: The compounds were tested in an in vitro kinase assay in 96 well format using Scintillation Proximity Assay (SPA—obtained from Amersham) for measuring incorporation of [γ-33-P]-Adenosine Triphosphate into a test substrate (GST-Retinoblastoma protein; GST-Rb). In each well was placed the compound to be tested (diluted in DMSO and water to correct concentrations) and in control wells either roscovitine as an inhibitor control or DMSO as a […] control.
Approximately 0.2 μl of CDK2/Cyclin E partially-purified enzyme (amount dependent on enzyme activity) diluted in 25 μl incubation buffer was added to each well then 20 μl of GST-Rb/ATP/ATP33 mixture (containing 0.5 μg GST-Rb and 0.2 μM ATP and 0.14 μCi [γ-33-P]-Adenosine Triphosphate in incubation buffer), and the resulting mixture shaken gently, then incubated at room temperature for 60 minutes.
To each well was then added 150 μL stop solution containing (0.8 mg/well of Protein A-PVT SPA bead (Amersham)), 20 pM/well of Anti-Glutathione Transferase, Rabbit IgG (obtained from Molecular Probes), 61 mM EDTA and 50 mM HEPES pH 7.5 containing 0.05% sodium azide.
The plates were sealed with Topseal-S plate sealers, left for two hours then spun at 2500 rpm, 1124 xg., for 5 minutes. The plates were read on a Topcount for 30 seconds per well. […]
E. coli paste was resuspended in 10 ml/g of NETN buffer (50 mM Tris pH 7.5, 120 mM NaCl, 1 mM EDTA, 0.5% v/v NP-40, 1 mM PMSF, 1 ug/ml leupeptin, 1 μg/ml aprotinin and 1 ug/ml pepstatin) and sonicated for 2×45 seconds per 100 ml homogenate. […] The final product was analysed by Sodium Dodeca Sulfate (SDS) PAGE (Polyacrylamide gel) using 8-16% Tris-Glycine gels (Novex, San Diego, USA).
The open reading frames of CDK2 and Cyclin E were isolated by reverse transcriptase-PCR using HeLa cell and activated T cell mRNA as a template and cloned into the insect expression vector pVL1393 (obtained from Invitrogen 1995 catalogue number: V1392-20). […]

IC50 [nM]	SMILES
65	CC(C)n1c(-c2ccnc(Nc3ccccc3)n2)cnc1C(=O)c1ccccc1 [Example 6, 2-Anilino4(2-benzoyl-1-isopropylimidazol-5-yl)pyrimidine]
4	CC(C)n1c(-c2ccnc(Nc3ccccc3)n2)cnc1C(=O)c1ccncc1 [Example 8, 2-Anilino-4-[2-(pyridin-4-ylcarbonyl)-1-isopropylimidazol-5-yl]pyrimidine]
64	CC(C)n1c(-c2ccnc(Nc3ccccc3)n2)cnc1C(=O)CCc1ccccc1 [Example 9, 2-Anilino-4-[2-(3-phenylpropionyl)-1-isopropylimidazol-5-yl]pyrimidine]

From patent publication US7427626B2, “2-Anilino-4-(imidazol-5-yl)-pyrimidine derivatives and their use as cdk (cdk2) inhibitors” (AstraZeneca AB, priority 2003, dated 2008)
